Experiment [1] has as its system A431 skin cancer cell line. In words: Cancer cell growth inhibition, A431 (SRB). The conditions noted are these: Homo sapiens, A-431, 72 h, read-out: ID50 (nM) A431.
In experiment [2] the test system is SK-Br3 breast cancer cell line. Put plainly: Cancer cell growth inhibition, SK-Br3 (SRB). The conditions noted are these: Homo sapiens, SK-BR-3, 72 h, read-out: ID50 (nM) SK-Br3.

A value given as a limit tells only on which side of the number the result lay.

With `C/C=C/C(=O)N1CC[C@H](Oc2cc3c(Nc4ccc(F)c(Cl)c4F)ncnc3cc2OC)C1` [Example 2, (E)-1-((3S)-3-(4-(3-chloro-2,4-difluorophenylamino)-7-methoxyquinazolin-6-yloxy)pyrrolidin-1-yl)but-2-en-1-one], the IC50 came to 85 nM in experiment [1] and 316 nM in experiment [2].
The matching figures for `CC#CC(=O)N1CC[C@H](Oc2cc3c(Nc4ccc(F)c(Cl)c4F)ncnc3cc2OC)C1` [Example 3, 1-((3S)-3-(4-(3-chloro-2,4-difluorophenylamino)-7-methoxyquinazolin-6-yloxy)pyrrolidin-1-yl)but-2-yn-1-one]: 37 nM and 1300 nM.
The matching figures for `COc1cc2ncnc(Nc3ccc(F)c(Cl)c3F)c2cc1O[C@H]1CCN(C(=O)C#CCCN2CCN(C)CC2)C1` [Example 4, 1-((3S)-3-(4-(3-chloro-2,4-difluorophenylamino)-7-methoxyquinazolin-6-yloxy)pyrrolidin-1-yl)-5-(4-methylpiperazin-1-yl)pent-2-yn-1-one]: 53 nM and 604 nM.
The like results for `COc1cc2ncnc(Nc3ccc(F)c(Cl)c3F)c2cc1O[C@H]1CCN(C(=O)C#CCN(C)C)C1` [Example 5, 1-((3S)-3-(4-(3-chloro-2,4-difluorophenylamino)-7-methoxyquinazolin-6-yloxy)pyrrolidin-1-yl)-4-(dimethylamino)but-2-yn-1-one] were, in that order, 33 nM and 128 nM.
As to `C=CC(=O)N1CC[C@H](Oc2cc3c(Nc4cccc(Cl)c4F)ncnc3cc2OC)C1` [Example 6, 1-((3S)-3-(4-(3-chloro-2-fluorophenylamino)-7-methoxyquinazolin-6-yloxy)pyrrolidin-1-yl)pro-2-pen-1-one], the IC50 in experiment [1] was determined as 531 nM; in experiment [2], 1670 nM.
In the case of `C=CC(=O)N1CC[C@H](Oc2cc3c(Nc4ccc(Br)cc4F)ncnc3cc2OC)C1` [Example 9, 1-((3S)-3-(4-(4-bromo-2-fluorophenylamino)-7-methoxyquinazolin-6-yloxy)pyrrolidin-1-yl)pro-2-pen-1-one], the IC50 came out at 15 nM in experiment [1] and 58 nM in experiment [2].
The matching figures for `C=CC(=O)N1CC[C@H](Oc2cc3c(Nc4ccc5c(cnn5Cc5cccc(F)c5)c4)ncnc3cc2OC)C1` [Example 12, 1-((3S)-3-(4-(1-(3-fluorobenzyl)-1H-indazol-5-ylamino)-7-methoxyquinazolin-6-yloxy)pyrrolidin-1-yl)pro-2-pen-1-one]: 19 nM and 3 nM.
Take `C=CC(=O)N1CC[C@H](Oc2cc3c(Nc4ccc(F)c(Cl)c4)ncnc3cc2OC)C1` [Example 13, 1-((3S)-3-(4-(3-chloro-4-fluorophenylamino)-7-methoxyquinazolin-6-yloxy)pyrrolidin-1-yl)pro-2-pen-1-one]: in experiment [2], the IC50 stood at 17 nM.
On the same count and under the same terms, the value for `C=CC(=O)N1CC[C@@H](Oc2cc3c(Nc4ccc(F)c(Cl)c4)ncnc3cc2OC)C1` [Example 14] was 128 nM.
As for `C=CC(=O)N1CCCC(Oc2cc3c(Nc4ccc(F)c(Cl)c4F)ncnc3cc2OC)C1` (stereo not drawn) [Example 18, 1-(3-(4-(3-chloro-2,4-difluorophenylamino)-7-methoxyquinazolin-6-yloxy)piperidin-1-yl)pro-2-pen-1-one], the IC50 in experiment [1] worked out at 6 nM; in experiment [2], 19 nM.
The like results for `C=CC(=O)N1CC[C@@H](Oc2cc3c(Nc4ccc(F)c(Cl)c4F)ncnc3cc2OC)C1` [Example 20] were, in that order, 222 nM and 57 nM.
The like results for `C=CC(=O)NCCOc1cc2c(Nc3ccc(F)c(Cl)c3F)ncnc2cc1OC` [Example 21, N-(2-(4-(3-chloro-2,4-difluorophenylamino)-7-methoxyquinazolin-6-yloxy)ethyl)acrylamide] were, in that order, 699 nM and 210 nM.
Take `C=CC(=O)N1CC(Oc2cc3c(Nc4cccc(C#N)c4)ncnc3cc2OC)C1` [Example 27, 3-(6-(1-acryloylazetidin-3-yloxy)-7-methoxyquinazolin-4-ylamino)benzonitrile]: the results for the IC50 in experiment [1] and in experiment [2] were 17 nM and 3 nM, respectively.
The matching figures for `CNC(=O)/C=C/C(=O)N1CC(Oc2cc3c(Nc4ccc(F)c(Cl)c4F)ncnc3cc2OC)C1` [Example 28, (E)-4-(3-(4-(3-chloro-2,4-difluorophenylamino)-7-methoxyquinazolin-6-yloxy)azetidin-1-yl)-N-methyl-4-oxobut-2-ene amide]: 41 nM and 262 nM.
The like results for `C=C(C)C(=O)N1CC(Oc2cc3c(Nc4ccc(F)c(Cl)c4F)ncnc3cc2OC)C1` [Example 29, 1-(3-(4-(3-chloro-2,4-difluorophenylamino)-7-methoxyquinazolin-6-yloxy)azetidin-1-yl)-2-methylpro-2-pen-1-one] were, in that order, 29 nM and 19 nM.
The like results for `COC(=O)/C=C\C(=O)N1CC(Oc2cc3c(Nc4cccc(Cl)c4F)ncnc3cc2OC)C1` [Example 30, (Z)-methyl 4-(3-(4-(3-chloro-2-fluorophenylamino)-7-methoxyquinazolin-6-yloxy)azetidin-1-yl)-4-oxobut-2-enoate] were, in that order, 1 nM and 0.6 nM.
Turning to `COc1cc2ncnc(Nc3ccc(F)c(Cl)c3F)c2cc1OC1CN(C(=O)/C=C/Cl)C1` [Example 33, (E)-3-chloro-1-(3-(4-(3-chloro-2,4-difluorophenylamino)-7-methoxyquinazolin-6-yloxy)azetidin-1-yl)pro-2-pen-1-one], the values for the IC50 in experiment [1] and in experiment [2] were 44 nM and 35 nM, respectively.
The like results for `C=CC(=O)N1CCC(Oc2cc3c(N[C@H](C)c4ccccc4)ncnc3cc2OC)CC1` [Example 35, (R)-1-(4-(7-methoxy-4-(1-phenylethylamino)quinazolin-6-yloxy)piperidin-1-yl)pro-2-pen-1-one] were, in that order, 514 nM and 3 nM.
The matching figures for `C#Cc1cccc(Nc2ncnc3cc(OC)c(OC4CCN(C(=O)C=C)CC4)cc23)c1` [Example 37, 1-(4-(4-(3-ethynylphenylamino)-7-methoxyquinazolin-6-yloxy)piperidin-1-yl)pro-2-pen-1-one]: 52 nM and 79 nM.
The like results for `C=CC(=O)N1CCC(Oc2cc3c(Nc4cc(OC)c(Cl)cc4OC)ncnc3cc2OC)CC1` [Example 38, 1-(4-(4-(4-chloro-2,5-dimethoxyphenylamino)-7-methoxyquinazolin-6-yloxy)piperidin-1-yl)pro-2-pen-1-one] were, in that order, over 10000 nM and over 10000 nM.
As to `C=CC(=O)N1CCC(Oc2cc3c(Nc4ccc(C(C)C)cc4)ncnc3cc2OC)CC1` [Example 40, 1-(4-(4-(4-isopropylphenylamino)-7-methoxyquinazolin-6-yloxy)piperidin-1-yl)pro-2-pen-1-one], the results for the IC50 in experiment [1] and in experiment [2] were 23 nM and 37 nM, respectively.
On to `C=CC(=O)N1CCC(Oc2cc3c(Nc4ccc(Cl)c(Cl)c4)ncnc3cc2OC)CC1` [Example 44, 1-(4-(4-(3,4-dichlorophenylamino)-7-methoxyquinazolin-6-yloxy)piperidin-1-yl)pro-2-pen-1-one], for which the IC50 in experiment [2] turned out to be 2 nM.
`C=CC(=O)N1CCC(Oc2cc3c(Nc4ccc(F)c(F)c4F)ncnc3cc2OC)CC1` [Example 45, 1-(4-(7-methoxy-4-(2,3,4-trifluorophenylamino)quinazolin-6-yloxy)piperidin-1-yl)pro-2-pen-1-one]: the IC50 worked out at 43 nM in experiment [1] and 3 nM in experiment [2].
The matching figures for `C=CC(=O)N1CCC(Oc2cc3c(Nc4ccc(F)c(C)c4)ncnc3cc2OC)CC1` [Example 46, 1-(4-(4-(4-fluoro-3-methylphenylamino)-7-methoxyquinazolin-6-yloxy)piperidin-1-yl)pro-2-pen-1-one]: 8 nM and 2 nM.
The matching figures for `C=CC(=O)N1CCC(Oc2cc3c(Nc4ccc(C)c(C)c4)ncnc3cc2OC)CC1` [Example 47, 1-(4-(4-(3,4-dimethylphenylamino)-7-methoxyquinazolin-6-yloxy)piperidin-1-yl)pro-2-pen-1-one]: 19 nM and 10 nM.
The matching figures for `C=CC(=O)N1CCC(Oc2cc3c(Nc4ccc(Oc5ccccc5)cc4)ncnc3cc2OC)CC1` [Example 48, 1-(4-(7-methoxy-4-(4-phenoxyphenylamino)quinazolin-6-yloxy)piperidin-1-yl)pro-2-pen-1-one]: over 1000 nM and 8 nM.
Consider `C=CC(=O)N1CCC(Oc2cc3c(Nc4ccc5c(c4)CCC5)ncnc3cc2OC)CC1` [Example 49, 1-(4-(4-(2,3-dihydro-1H-inden-5-ylamino)-7-methoxyquinazolin-6-yloxy)piperidin-1-yl)pro-2-pen-1-one], for which the IC50 in experiment [1] came out at 29 nM; in experiment [2], 45 nM.
For the molecule `C=CC(=O)N1CCC(Oc2cc3c(Nc4cc(Cl)c(O)c(Cl)c4)ncnc3cc2OC)CC1` [Example 50, 1-(4-(4-(3,5-dichloro-4-hydroxyphenylamino)-7-methoxyquinazolin-6-yloxy)piperidin-1-yl)pro-2-pen-1-one], the IC50 in experiment [1] amounted to 179 nM; in experiment [2], 91 nM.
The like results for `C=CC(=O)N1CCC(Oc2cc3c(Nc4ccc(Cl)c(O)c4)ncnc3cc2OC)CC1` [Example 51, 1-(4-(4-(4-chloro-3-hydroxyphenylamino)-7-methoxyquinazolin-6-yloxy)piperidin-1-yl)pro-2-pen-1-one] were, in that order, 105 nM and 19 nM.
In the case of `C=CC(=O)N1CCC(Oc2cc3c(Nc4ccc(OCc5ccccn5)c(Cl)c4)ncnc3cc2OC)CC1` [Example 55, 1-(4-(4-(3-chloro-4-(pyridin-2-ylmethoxy)phenylamino)-7-methoxyquinazolin-6-yloxy)piperidin-1-yl)pro-2-pen-1-one], the IC50 in experiment [2] came to 2 nM.
As for `COc1cc2ncnc(Nc3ccc(F)c(Cl)c3F)c2cc1OC1CCN(C(=O)/C=C/CN(C)C)CC1` [Example 98, (E)-1-(4-(4-(3-chloro-2,4-difluorophenylamino)-7-methoxyquinazolin-6-yloxy)piperidin-1-yl)-4-(dimethylamino)but-2-en-1-one], in experiment [2], the IC50 worked out at 45 nM.

(Values after patent publication US8188102B2, “Amide derivative for inhibiting the growth of cancer cells” (Hanmi Holdings Co., Ltd., priority 2007, dated 2012).)
